Experimental data reported in ChEMBL document CHEMBL5303573, “Mapping human microbiome drug metabolism by gut bacteria and their genes” (Nature, 2019).

How the values were obtained:
[1] = The drug is tested on Escherichia coli strain: BW25113 for biotransformation. The drug concentrations were measured before and after a 12-h incubation by liquid-chromatography-coupled mass spectrometry (LC–MS); conditions: 2 µM
[2] = The drug is tested on Bacteroides sp. WH2 strain: WH2 for biotransformation. The drug concentrations were measured before and after a 12-h incubation by liquid-chromatography-coupled mass spectrometry (LC–MS); conditions: bacteroides sp. wh2, 12 h, 2 µM
[3] = bacteroides intestinalis, 12 h, 2 µM
Description: The drug is tested on Bacteroides intestinalis strain: DSM17393 for biotransformation. The drug concentrations were measured before and after a 12-h incubation by liquid-chromatography-coupled mass spectrometry (LC–MS)

[4] = The drug is tested on Bacteroides dorei strain: DSM17855 for biotransformation. The drug concentrations were measured before and after a 12-h incubation by liquid-chromatography-coupled mass spectrometry (LC–MS); conditions: phocaeicola dorei, 2 µM
[5] = bacteroides fragilis, 12 h, 2 µM
Description: The drug is tested on Bacteroides fragilis strain: DS-208 for biotransformation. The drug concentrations were measured before and after a 12-h incubation by liquid-chromatography-coupled mass spectrometry (LC–MS)

[6] = The drug is tested on Bacteroides xylanisolvens strain: DSM18836 for biotransformation. The drug concentrations were measured before and after a 12-h incubation by liquid-chromatography-coupled mass spectrometry (LC–MS); conditions: 2 µM
[7] = The drug is tested on Bacteroides pectinophilus strain: ATCC43243 for biotransformation. The drug concentrations were measured before and after a 12-h incubation by liquid-chromatography-coupled mass spectrometry (LC–MS); conditions: 2 µM
[8] = The drug is tested on Collinsella intestinalis strain: DSM13280 for biotransformation. The drug concentrations were measured before and after a 12-h incubation by liquid-chromatography-coupled mass spectrometry (LC–MS); conditions: 2 µM
[9] = The drug is tested on Bacteroides coprophilus strain: DSM18228 for biotransformation. The drug concentrations were measured before and after a 12-h incubation by liquid-chromatography-coupled mass spectrometry (LC–MS); conditions: 2 µM
[10] = bacteroides stercoris, 12 h, 2 µM
Description: The drug is tested on Bacteroides stercoris strain: ATCC43183 for biotransformation. The drug concentrations were measured before and after a 12-h incubation by liquid-chromatography-coupled mass spectrometry (LC–MS)

[11] = The drug is tested on Providencia rettgeri strain: DSM1131 for biotransformation. The drug concentrations were measured before and after a 12-h incubation by liquid-chromatography-coupled mass spectrometry (LC–MS); format: ADME; parameters: dose 2 uM, timepoint 0 vs 12 hours; conditions: 2 µM
[12] = The drug is tested on Ruminococcus gnavus strain: ATCC29149 for biotransformation. The drug concentrations were measured before and after a 12-h incubation by liquid-chromatography-coupled mass spectrometry (LC–MS); conditions: mediterraneibacter gnavus, 2 µM
[13] = The drug is tested on Bacteroides uniformis strain: ATCC8492 for biotransformation. The drug concentrations were measured before and after a 12-h incubation by liquid-chromatography-coupled mass spectrometry (LC–MS); conditions: 2 µM
[14] = bacteroides fragilis, 12 h, 2 µM; remark: listed apart in the source
Description: The drug is tested on Bacteroides fragilis strain: 3397 (T10) for biotransformation. The drug concentrations were measured before and after a 12-h incubation by liquid-chromatography-coupled mass spectrometry (LC–MS)

[15] = The drug is tested on Bifidobacterium ruminantium strain: fecal isolate for biotransformation. The drug concentrations were measured before and after a 12-h incubation by liquid-chromatography-coupled mass spectrometry (LC–MS); conditions: 2 µM
[16] = The drug is tested on Providencia stuartii strain: ATCC25827 for biotransformation. The drug concentrations were measured before and after a 12-h incubation by liquid-chromatography-coupled mass spectrometry (LC–MS); conditions: 2 µM
[17] = The drug is tested on Blautia hansenii strain: DSM20583 for biotransformation. The drug concentrations were measured before and after a 12-h incubation by liquid-chromatography-coupled mass spectrometry (LC–MS); conditions: 2 µM
[18] = The drug is tested on Bifidobacterium longum subsp. Infantis strain: CCUG52486 for biotransformation. The drug concentrations were measured before and after a 12-h incubation by liquid-chromatography-coupled mass spectrometry (LC–MS); conditions: 2 µM
[19] = The drug is tested on Bacteroides cellulosilyticus strain: DSM14838 for biotransformation. The drug concentrations were measured before and after a 12-h incubation by liquid-chromatography-coupled mass spectrometry (LC–MS); conditions: 2 µM
[20] = The drug is tested on Subdoligranulum variabile strain: DSM15176 for biotransformation. The drug concentrations were measured before and after a 12-h incubation by liquid-chromatography-coupled mass spectrometry (LC–MS); conditions: 2 µM

Row | SMILES | Bacterial Biotransformation [1] | Bacterial Biotransformation [2] | Bacterial Biotransformation [3] | Bacterial Biotransformation [4] | Bacterial Biotransformation [5] | Bacterial Biotransformation [6] | Bacterial Biotransformation [7] | Bacterial Biotransformation [8] | Bacterial Biotransformation [9] | Bacterial Biotransformation [10] | Bacterial Biotransformation [11] | Bacterial Biotransformation [12] | Bacterial Biotransformation [13] | Bacterial Biotransformation [14] | Bacterial Biotransformation [15] | Bacterial Biotransformation [16] | Bacterial Biotransformation [17] | Bacterial Biotransformation [18] | Bacterial Biotransformation [19] | Bacterial Biotransformation [20]
1 | CCCCC(=O)N(Cc1ccc(-c2ccccc2-c2nnn[nH]2)cc1)[C@H](C(=O)O)C(C)C | Compound NOT metabolized | Compound NOT metabolized | Compound metabolized | Compound NOT metabolized | Compound metabolized | Compound metabolized | Compound NOT metabolized | Compound NOT metabolized | Compound NOT metabolized | Compound NOT metabolized | Compound NOT metabolized | Compound NOT metabolized | Compound metabolized | Compound NOT metabolized | Compound NOT metabolized | Compound NOT metabolized | Compound NOT metabolized | Compound NOT metabolized |  | 
2 | C[C@@H]1C[C@H]2[C@@H]3CCC4=CC(=O)C=C[C@]4(C)[C@@]3(F)[C@@H](O)C[C@]2(C)[C@@]1(O)C(=O)CO [DEXAMETHASONE] | Compound NOT metabolized | Compound NOT metabolized | Compound NOT metabolized | Compound metabolized | Compound metabolized | Compound metabolized |  | Compound NOT metabolized | Compound NOT metabolized | Compound metabolized | Compound NOT metabolized | Compound NOT metabolized | Compound metabolized |  |  |  |  |  |  | 
3 | CCCCc1nc(Cl)c(CO)n1Cc1ccc(-c2ccccc2-c2nn[nH]n2)cc1 [LOSARTAN] |  | Compound NOT metabolized |  | Compound metabolized |  | Compound metabolized | Compound NOT metabolized | Compound NOT metabolized | Compound NOT metabolized |  | Compound NOT metabolized | Compound NOT metabolized | Compound metabolized |  | Compound metabolized | Compound NOT metabolized | Compound NOT metabolized | Compound NOT metabolized | Compound metabolized | 
4 | Cc1cc(C)cc(OCC2CNC(=O)O2)c1 (centres undefined) [METAXALONE] |  | Compound NOT metabolized | Compound NOT metabolized | Compound metabolized |  | Compound metabolized | Compound metabolized | Compound NOT metabolized |  |  |  | Compound NOT metabolized | Compound metabolized |  | Compound NOT metabolized | Compound NOT metabolized | Compound metabolized | Compound NOT metabolized |  | 
5 | CC(C)(C)NCC(O)COc1cccc2c1CC(O)C(O)C2 (centres undefined) [NADOLOL] |  | Compound NOT metabolized | Compound NOT metabolized |  | Compound NOT metabolized | Compound NOT metabolized | Compound NOT metabolized | Compound NOT metabolized |  | Compound NOT metabolized | Compound NOT metabolized | Compound NOT metabolized | Compound NOT metabolized | Compound NOT metabolized |  | Compound NOT metabolized |  | Compound NOT metabolized | Compound NOT metabolized | 
6 | CCc1nc(N)nc(N)c1-c1ccc(Cl)cc1 [PYRIMETHAMINE] |  | Compound NOT metabolized | Compound NOT metabolized | Compound NOT metabolized | Compound NOT metabolized | Compound NOT metabolized | Compound NOT metabolized | Compound NOT metabolized | Compound NOT metabolized | Compound NOT metabolized | Compound NOT metabolized | Compound NOT metabolized | Compound NOT metabolized | Compound NOT metabolized | Compound NOT metabolized | Compound NOT metabolized | Compound NOT metabolized | Compound NOT metabolized | Compound NOT metabolized | 
7 | C=C[C@H]1CN2CC[C@H]1C[C@H]2[C@H](O)c1ccnc2ccc(OC)cc12.C=C[C@H]1CN2CC[C@H]1C[C@H]2[C@H](O)c1ccnc2ccc(OC)cc12.O.O.O=S(=O)(O)O [QUININE SULFATE] |  | Compound NOT metabolized | Compound NOT metabolized |  |  | Compound NOT metabolized | Compound NOT metabolized | Compound NOT metabolized | Compound NOT metabolized | Compound NOT metabolized | Compound NOT metabolized | Compound NOT metabolized | Compound NOT metabolized |  | Compound NOT metabolized | Compound NOT metabolized |  | Compound NOT metabolized |  | 
8 | COC(=O)[C@H]1[C@H]2C[C@@H]3c4[nH]c5cc(OC)ccc5c4CCN3C[C@H]2C[C@@H](OC(=O)c2cc(OC)c(OC)c(OC)c2)[C@@H]1OC [RESERPINE] | Compound NOT metabolized | Compound NOT metabolized | Compound NOT metabolized | Compound NOT metabolized | Compound NOT metabolized | Compound NOT metabolized |  | Compound NOT metabolized | Compound NOT metabolized | Compound NOT metabolized | Compound NOT metabolized | Compound NOT metabolized | Compound NOT metabolized | Compound NOT metabolized | Compound NOT metabolized | Compound NOT metabolized | Compound NOT metabolized | Compound NOT metabolized | Compound NOT metabolized | 
9 | Cc1ccc(/C(=C\CN2CCCC2)c2ccccn2)cc1 [TRIPROLIDINE] |  | Compound NOT metabolized | Compound NOT metabolized | Compound NOT metabolized | Compound NOT metabolized | Compound NOT metabolized | Compound NOT metabolized | Compound NOT metabolized | Compound NOT metabolized | Compound NOT metabolized | Compound NOT metabolized | Compound NOT metabolized | Compound NOT metabolized | Compound NOT metabolized |  | Compound NOT metabolized |  |  |  | Compound NOT metabolized
